Laboratory results taken from patent publication US20240293430A1, “WITHAFERIN A AND IMMUNE CHECKPOINT BLOCKER COMBINATION THERAPIES” (University of South Florida, priority 2023, published 2024).

Key:
[1] = system: NSCLC cell lines (LLC, H1650 and A549); assay: Cell Titer-Glo cell viability assay; assay type: cell-based, mouse (LLC), human (H1650; details: 48 h, range over LLC
Method: FIGS. 1A-lE depict that WFA induces ER stress-mediated apoptosis in NSCLC cell lines. (FIG. 1A) NSCLC cells were plated on 96-well plates and treated with different concentrations of WFA ([…]) in triplicates. Forty-eight hours post-treatment, cell viability was determined using Cell Titer-Glo assay. Luminescence values were normalized to control untreated cells and IC50 values are represented as the mean of two independent experiments ±SEM. (FIG. 1B) NSCLC cells were treated WFA for forty-eight hours, then collected to measure apoptotic cell death using Annexin V assay in LLC cells, H1650 cells, and A549 cells. Percentages of early (annexin*DAPI-) and late (annexin*DAPI+) apoptotic cells are represented as means of two separate experiments ±SEM and statistical significance was calculated using one-way ANOVA and a Fisher LSD post hoc test was used to compare the mean of each group to that of the control group. […] The quantification of western blot band density was performed using Image J software v.1.54d and normalized to housekeeping control protein in LLC cells (0-actin). […]
LLC, H1650, or A549 was plated in 96-well plates and treated with WFA (serialdilutions 10-0.078 μM) in triplicates. […] Forty-eight hours after treatment, cell viability was determined using Cell Titer-Glo assay (Promega, Madison, WI, USA) according to the manufacturer's instructions. […]

LLC flank tumors = assay: LLC syngeneic mouse model, tumor growth; assay type: in vivo, C57BL/6 mice; details: i.p. every other day, five treatments; WFA 5 mg/kg, α-PD-L1 200 μg/mouse
Method: FIGS. 5A-5G depict that WFA sensitizes flank tumors to α-PD-L1 therapy and targets immunosuppressive MDSCs and T-regs. (FIG. 5A) Establishment of LLC flank tumors and treatment schedule. (FIG. 5B) Tumor volume measurement in mm^3 and tumor weight at the endpoint of the experiment. (FIG. 5C) Change in the levels of ecto-CRT in tumors was measured using flow cytometry. (FIGS. 5D-5G) Flow cytometry was used to determine the change in immune cell infiltration in collected tumors. […] Moreover, WFA reduced the immunosuppressive T regs (FIG. 5F) and CD11b+Gr1+MDSC (FIG. 5G) populations. The means of two independent experiments ±SEM are shown, and the statistical significance was calculated using one-way ANOVA and a Fisher LSD post hoc test where * and #represent p<0.05 and ** and ##represent p<0.01. * Symbols refer to the difference between the vehicle control and WFA, while #refers to comparisons between the vehicle control and WFA+α-PD-L1 combination.
C57BL/6 mice were purchased from the Jackson Laboratory (Bar Harbor, ME, USA) and acclimated for a week. To establish the LLC syngeneic tumors, C57BL/6 mice were injected with a half million cells on the right flank and monitored until tumors were first palpable (2-3 mm diameter). […] Tumor volumes (mm^3) were calculated using the equation (length^2 x width/2), where the length is defined as the bigger tumor dimension. […]

## CC1=C(CO)C(=O)O[C@@H]([C@@H](C)[C@H]2CC[C@H]3[C@@H]4C[C@H]5O[C@]56[C@@H](O)C=CC(=O)[C@]6(C)[C@H]4CC[C@]23C)C1 [WFA, Withaferin A]
[1]
  IC50: 0.5 to 1.5 µM
LLC flank tumors
  tumor size / tumor growth: non-significant reduction
